Results taken from patent publication US20240390413A1, “POLYMERS OBTAINED BY THE REACTION OF A PHENOLIC COMPOUND AND A CARBONYL COMPOUND AS ANTI-SARS-COV-2 AGENTS” (BASF SE, priority 2021, published 2024).
Like-named read-outs stand apart in the source and are kept apart here.

Legend:
SARS-CoV-2 [1] = type: cell-based; conditions: precision cut human lung slices; 1, 10 or 100 μg/ml; water control
SARS-CoV-2 [2] = type: cell-based; conditions: Calu3 cells; formulations A-1 to A-6 (1,000 to 0 μg/ml condensation product); Camostat 100 μM or 10 μM as control

CN(C)C(=O)COC(=O)Cc1ccc(OC(=O)c2ccc(NC(=N)N)cc2)cc1 [Camostat]
viral titer (SARS-CoV-2 [1]): reduced the viral titer in a dose-dependent manner
viral titer (SARS-CoV-2 [2]): reduction observed
